# Data reported in patent publication US20240002376A1, “COMPOSITIONS AND METHODS FOR G-PROTEIN-COUPLED RECEPTOR 44 DETECTION” (City of Hope, priority 2020, published 2024).
# “Also recorded” adds a separate entry of the source.
# Experiments:
# Assay type in all cases: in vivo
# [1] = Biodistribution of 18F GPR44 radioligand in healthy NOD/SCID mice
# Protocol: Bio-distribution analysis over time of a unique ^18F GPR44 radioligand in healthy NOD/SCID mice. The biodistribution of [^18F] Ab-1 was investigated in health NOD/SCID mice. The mice were administered doses of the radiotracer i.v. through the tail vein under general anesthesia. At 30, 60, and 90 minutes post-injection, mice were euthanized. The blood, lung, heart, liver, spleen, stomach, small and large intestines, muscle, kidney, pancreas and bone were collected, weighed, and radioactivity counted. […] We also injected cold unlabeled Ab-1, as a blocking agent, and collected the organs at 30 minutes post-injection. Organ uptake varied little from results obtained in mice given the radiotracer.
# GPR44+1.1B4 cells = test: Biodistribution in NOD/SCID mice implanted with human beta-like 1.1B4 cells
# Protocol: (§1) Preliminary studies confirmed that the human beta-like 1.1B4 cells express GPR44. However, it was not clear if the radiotracer would localize to these cells in living animals. We performed a biodistribution study in NOD/SCID mice post 3 weeks following implantation of 1.1B4 cells. The blocking agent was cold Ab-1. At 30 minutes post-injection, the mice with/without blocking agent were euthanized and organs were collected. […] For mice with transplanted study, 500 IEQ human islets were transplanted into NOD/SCID mice kidney capsule. We also performed the biodistribution study in the mice with human islets (FIG. 9). […] Ab-1. Further, [^18F]
# human islets = test: Biodistribution in NOD/SCID mice with human islets transplanted into kidney capsule; settings: 500 IEQ human islets in kidney capsule
# Protocol: as §1
compound,measurement,setting,value
CN(C1CCc2c(c3ccccc3n2CC(=O)O)C1)S(=O)(=O)c1ccc([18F])cc1 (centres unmarked) [[^18F] Ab-1],specific binding in murine tissues,[1]; blocking with cold Ab-1,no specific binding
same,uptake in the murine pancreas,"[1]; i.v. tail vein, 30, 60 and 90 minutes post-injection",minimal uptake
same,uptake in the liver,"[1]; i.v. tail vein, 30, 60 and 90 minutes post-injection, radioactivity counted",Prominent uptake
same,uptake in the kidneys,"[1]; i.v. tail vein, 30, 60 and 90 minutes post-injection, relative to liver",much less so
same,organ uptake with cold unlabeled Ab-1 as blocking agent versus radiotracer alone,[1]; organs collected 30 minutes post-injection,varied little
same,effect of blocking agent cold Ab-1 on uptake in 1.1B4 cells,GPR44+1.1B4 cells; 30 minutes post-injection,decreased by cold Ab-1
same,uptake in other organs before or after administration of cold Ab-1,GPR44+1.1B4 cells; 30 minutes post-injection,not different
same,uptake in implanted 1.1B4 cells,"GPR44+1.1B4 cells; 30 minutes post-injection, 3 weeks after implantation",highest uptake; also recorded: accumulated
same,binding to GPR44+1.1B4 cells,"GPR44+1.1B4 cells; in vivo, blocking with cold Ab-1",specifically binds
same,specific binding to human islets,human islets,high specific binding
same,uptake in human islets,human islets,significant uptake; also recorded: accumulated
